Assay results from PubChem BioAssay (NCI).
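Exposure lasted 48 hours, with cells grown in 96-well plates and compounds tested at five concentrations. At the TGI there is no net growth.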

Columns and labels:
Test in all cases: inhibition of tumour cell growth, NCI panel, 48 h
786-0 renal = system: 786-0 renal
ACHN renal = system: ACHN renal
CAKI-1 renal = system: CAKI-1 renal
CCRF-CEM leukemia = system: CCRF-CEM leukemia
COLO 205 colon = system: COLO 205 colon
DU-145 prostate = system: DU-145 prostate
EKVX NSCLC = system: EKVX NSCLC
HCC-2998 colon = system: HCC-2998 colon
HCT-116 colon = system: HCT-116 colon
HCT-15 colon = system: HCT-15 colon
HL-60(TB) leukemia = system: HL-60(TB) leukemia
HOP-62 NSCLC = system: HOP-62 NSCLC
HOP-92 NSCLC = system: HOP-92 NSCLC
HS 578T breast = system: HS 578T breast
HT29 colon = system: HT29 colon
IGROV1 ovarian = system: IGROV1 ovarian
K-562 leukemia = system: K-562 leukemia
KM12 colon = system: KM12 colon
LOX IMVI melanoma = system: LOX IMVI melanoma
M14 melanoma = system: M14 melanoma
MALME-3M melanoma = system: MALME-3M melanoma
MCF7 breast = system: MCF7 breast
MDA-MB-231 breast = system: MDA-MB-231 breast
MDA-MB-435 = system: MDA-MB-435
MDA-N = system: MDA-N
MOLT-4 leukemia = system: MOLT-4 leukemia
NCI-H226 lung = system: NCI-H226 lung
NCI-H23 lung = system: NCI-H23 lung
NCI-H460 lung = system: NCI-H460 lung
NCI-H522 lung = system: NCI-H522 lung
NCI/ADR-RES ovarian = system: NCI/ADR-RES ovarian
OVCAR-3 ovarian = system: OVCAR-3 ovarian
OVCAR-4 ovarian = system: OVCAR-4 ovarian
OVCAR-5 ovarian = system: OVCAR-5 ovarian
OVCAR-8 ovarian = system: OVCAR-8 ovarian
PC-3 prostate = system: PC-3 prostate
RPMI-8226 leukemia = system: RPMI-8226 leukemia
RXF 393 renal = system: RXF 393 renal
SF-268 CNS = system: SF-268 CNS
SF-295 CNS = system: SF-295 CNS
SF-539 CNS = system: SF-539 CNS
SK-MEL-28 melanoma = system: SK-MEL-28 melanoma
SK-MEL-5 melanoma = system: SK-MEL-5 melanoma
SK-OV-3 ovarian = system: SK-OV-3 ovarian
SN12C renal = system: SN12C renal
SNB-19 CNS = system: SNB-19 CNS
SR leukemia = system: SR leukemia
SW-620 colon = system: SW-620 colon
T-47D breast = system: T-47D breast
TK-10 renal = system: TK-10 renal
UACC-257 melanoma = system: UACC-257 melanoma
UACC-62 melanoma = system: UACC-62 melanoma
A498 renal = system: A498 renal
SK-MEL-2 melanoma = system: SK-MEL-2 melanoma
SNB-75 CNS = system: SNB-75 CNS
U251 CNS = system: U251 CNS
UO-31 renal = system: UO-31 renal
A549 NSCLC = system: A549 NSCLC

SMILES: Cc1coc2c1[C@@H](O)[C@@]1(C)[C@H](CCC[C@@H]1C)C2
- TGI (786-0 renal): > 100 µM
- TGI (ACHN renal): > 100 µM
- TGI (CAKI-1 renal): > 100 µM
- TGI (CCRF-CEM leukemia): > 100 µM
- TGI (COLO 205 colon): 60.1 µM
- TGI (DU-145 prostate): > 100 µM
- TGI (EKVX NSCLC): > 100 µM
- TGI (HCC-2998 colon): > 100 µM
- TGI (HCT-116 colon): > 100 µM
- TGI (HCT-15 colon): > 100 µM
- TGI (HL-60(TB) leukemia): 62 µM
- TGI (HOP-62 NSCLC): 93.2 µM
- TGI (HOP-92 NSCLC): > 100 µM
- TGI (HS 578T breast): > 100 µM
- TGI (HT29 colon): > 100 µM
- TGI (IGROV1 ovarian): > 100 µM
- TGI (K-562 leukemia): 74.7 µM
- TGI (KM12 colon): > 100 µM
- TGI (LOX IMVI melanoma): > 100 µM
- TGI (M14 melanoma): 43.9 µM
- TGI (MALME-3M melanoma): 99 µM
- TGI (MCF7 breast): > 100 µM
- TGI (MDA-MB-231 breast): 59.3 µM
- TGI (MDA-MB-435): 38.1 µM
- TGI (MDA-N): 64.1 µM
- TGI (MOLT-4 leukemia): 89.4 µM
- TGI (NCI-H226 lung): 76.3 µM
- TGI (NCI-H23 lung): > 100 µM
- TGI (NCI-H460 lung): > 100 µM
- TGI (NCI-H522 lung): 73.5 µM
- TGI (NCI/ADR-RES ovarian): 54.5 µM
- TGI (OVCAR-3 ovarian): 64.8 µM
- TGI (OVCAR-4 ovarian): > 100 µM
- TGI (OVCAR-5 ovarian): > 100 µM
- TGI (OVCAR-8 ovarian): 47.8 µM
- TGI (PC-3 prostate): > 100 µM
- TGI (RPMI-8226 leukemia): 90.6 µM
- TGI (RXF 393 renal): 55 µM
- TGI (SF-268 CNS): > 100 µM
- TGI (SF-295 CNS): > 100 µM
- TGI (SF-539 CNS): 47 µM
- TGI (SK-MEL-28 melanoma): > 100 µM
- TGI (SK-MEL-5 melanoma): 77.5 µM
- TGI (SK-OV-3 ovarian): > 100 µM
- TGI (SN12C renal): 75.7 µM
- TGI (SNB-19 CNS): > 100 µM
- TGI (SR leukemia): > 100 µM
- TGI (SW-620 colon): > 100 µM
- TGI (T-47D breast): > 100 µM
- TGI (TK-10 renal): > 100 µM
- TGI (UACC-257 melanoma): 84.3 µM
- TGI (UACC-62 melanoma): > 100 µM

SMILES: CC1=NN(c2cccc(Cl)c2)C2(SCC(=O)N2c2nc3ccccc3s2)/C1=C\c1ccccc1 (stereo not given)
- TGI (786-0 renal): 31 µM
- TGI (A498 renal): 51.8 µM
- TGI (ACHN renal): 48.4 µM
- TGI (CAKI-1 renal): 53 µM
- TGI (CCRF-CEM leukemia): > 100 µM
- TGI (DU-145 prostate): 45.3 µM
- TGI (EKVX NSCLC): > 100 µM
- TGI (HCC-2998 colon): 29.3 µM
- TGI (HCT-116 colon): 29.4 µM
- TGI (HCT-15 colon): 37.4 µM
- TGI (HL-60(TB) leukemia): 67.7 µM
- TGI (HOP-62 NSCLC): 56.7 µM
- TGI (HOP-92 NSCLC): 25.6 µM
- TGI (HS 578T breast): 55.4 µM
- TGI (HT29 colon): 44.8 µM
- TGI (IGROV1 ovarian): 58.7 µM
- TGI (K-562 leukemia): 54.4 µM
- TGI (KM12 colon): 32.2 µM
- TGI (LOX IMVI melanoma): 66.6 µM
- TGI (M14 melanoma): 70.1 µM
- TGI (MCF7 breast): 84.3 µM
- TGI (MDA-MB-231 breast): 55.5 µM
- TGI (MDA-MB-435): 38.9 µM
- TGI (MDA-N): 42.3 µM
- TGI (MOLT-4 leukemia): 60.2 µM
- TGI (NCI-H226 lung): 97.4 µM
- TGI (NCI-H23 lung): 51.9 µM
- TGI (NCI-H460 lung): 32.4 µM
- TGI (NCI-H522 lung): 34.6 µM
- TGI (NCI/ADR-RES ovarian): 83.3 µM
- TGI (OVCAR-3 ovarian): > 100 µM
- TGI (OVCAR-4 ovarian): 62.7 µM
- TGI (OVCAR-5 ovarian): 58.8 µM
- TGI (OVCAR-8 ovarian): 45.7 µM
- TGI (PC-3 prostate): 64.2 µM
- TGI (RPMI-8226 leukemia): 46.8 µM
- TGI (RXF 393 renal): 40.6 µM
- TGI (SF-268 CNS): 54.4 µM
- TGI (SF-295 CNS): 81.2 µM
- TGI (SF-539 CNS): > 100 µM
- TGI (SK-MEL-2 melanoma): 46.7 µM
- TGI (SK-MEL-28 melanoma): > 100 µM
- TGI (SK-MEL-5 melanoma): 30.3 µM
- TGI (SK-OV-3 ovarian): 55.1 µM
- TGI (SNB-75 CNS): > 100 µM
- TGI (SR leukemia): 63.3 µM
- TGI (SW-620 colon): 37.3 µM
- TGI (T-47D breast): > 100 µM
- TGI (TK-10 renal): > 100 µM
- TGI (U251 CNS): 44.3 µM
- TGI (UACC-257 melanoma): 85.2 µM
- TGI (UO-31 renal): 63.6 µM

SMILES: Cc1ccc(S(=O)(=O)NC2C(=O)c3ccccc3C(=O)C2n2ccnc2)cc1 (stereo not given)
- TGI (786-0 renal): 32.8 µM
- TGI (A549 NSCLC): > 100 µM
- TGI (ACHN renal): > 100 µM
- TGI (CAKI-1 renal): > 100 µM
- TGI (CCRF-CEM leukemia): 52.9 µM
- TGI (COLO 205 colon): > 100 µM
- TGI (DU-145 prostate): 30.7 µM
- TGI (EKVX NSCLC): > 100 µM
- TGI (HCC-2998 colon): > 100 µM
- TGI (HCT-116 colon): 53.1 µM
- TGI (HCT-15 colon): > 100 µM
- TGI (HL-60(TB) leukemia): 46.4 µM
- TGI (HOP-62 NSCLC): > 100 µM
- TGI (HOP-92 NSCLC): > 100 µM
- TGI (HS 578T breast): > 100 µM
- TGI (HT29 colon): > 100 µM
- TGI (IGROV1 ovarian): > 100 µM
- TGI (K-562 leukemia): > 100 µM
- TGI (KM12 colon): > 100 µM
- TGI (LOX IMVI melanoma): 25 µM
- TGI (M14 melanoma): > 100 µM
- TGI (MCF7 breast): > 100 µM
- TGI (MDA-MB-231 breast): 29.5 µM
- TGI (MDA-MB-435): 33 µM
- TGI (MDA-N): 29 µM
- TGI (MOLT-4 leukemia): 80.8 µM
- TGI (NCI-H226 lung): > 100 µM
- TGI (NCI-H23 lung): > 100 µM
- TGI (NCI-H460 lung): > 100 µM
- TGI (NCI-H522 lung): 5.77 µM
- TGI (NCI/ADR-RES ovarian): > 100 µM
- TGI (OVCAR-3 ovarian): > 100 µM
- TGI (OVCAR-4 ovarian): > 100 µM
- TGI (OVCAR-5 ovarian): > 100 µM
- TGI (OVCAR-8 ovarian): > 100 µM
- TGI (PC-3 prostate): > 100 µM
- TGI (RPMI-8226 leukemia): > 100 µM
- TGI (RXF 393 renal): > 100 µM
- TGI (SF-268 CNS): > 100 µM
- TGI (SF-295 CNS): > 100 µM
- TGI (SF-539 CNS): > 100 µM
- TGI (SK-MEL-2 melanoma): > 100 µM
- TGI (SK-MEL-28 melanoma): > 100 µM
- TGI (SK-MEL-5 melanoma): > 100 µM
- TGI (SK-OV-3 ovarian): > 100 µM
- TGI (SN12C renal): 28.3 µM
- TGI (SNB-19 CNS): > 100 µM
- TGI (SNB-75 CNS): > 100 µM
- TGI (SR leukemia): > 100 µM
- TGI (SW-620 colon): > 100 µM
- TGI (T-47D breast): 38.8 µM
- TGI (TK-10 renal): > 100 µM
- TGI (U251 CNS): > 100 µM
- TGI (UACC-257 melanoma): > 100 µM
- TGI (UACC-62 melanoma): > 100 µM
- TGI (UO-31 renal): > 100 µM
